This note sets out measurements from article PMC11500415, “Chemical inhibition of stomatal differentiation by perturbation of the master-regulatory bHLH heterodimer via an ACT-Like domain” (Nature Communications, 2024).

“And” between values parts separate entries of the source, which are not always exact repeats. Equal entries are not always repeated.

The target of one data set is T1, DB+SCRM (control yeast) (Arabidopsis thaliana, UniProt Q9LSE2).
T1 construct: expressed in transfected cells; host or cells: yeast strain AH109
T1 sequence (Q9LSE2 1-494): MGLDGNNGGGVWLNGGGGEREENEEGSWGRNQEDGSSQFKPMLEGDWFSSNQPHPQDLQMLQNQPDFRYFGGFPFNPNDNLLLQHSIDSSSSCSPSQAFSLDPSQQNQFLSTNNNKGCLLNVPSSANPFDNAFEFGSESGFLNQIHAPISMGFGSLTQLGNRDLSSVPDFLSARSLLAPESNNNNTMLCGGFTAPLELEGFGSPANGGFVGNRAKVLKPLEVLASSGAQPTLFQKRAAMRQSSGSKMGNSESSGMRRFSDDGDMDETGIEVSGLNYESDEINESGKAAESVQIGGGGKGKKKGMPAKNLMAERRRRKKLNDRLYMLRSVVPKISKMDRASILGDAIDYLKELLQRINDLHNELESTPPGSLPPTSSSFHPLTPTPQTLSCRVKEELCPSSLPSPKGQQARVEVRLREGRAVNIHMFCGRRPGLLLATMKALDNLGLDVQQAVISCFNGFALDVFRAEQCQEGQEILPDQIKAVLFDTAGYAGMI
Kind of data set: Y2H quantitative α-galactosidase assay, control pair DB+SCRM. In kind it is cell-based. The conditions noted are these: individual replicates, listed as AYSJ929. The text has this: Supplement 41467_2024_53214_MOESM7_ESM.xlsx, sheet "Fig.6b" | column: a-galactosidase [milliunits /(ml x cell)]

Data set [1] is described as follows: Stability in aqueous conditions by LC/MS. Format: physicochemical. On the procedure: Next, to directly address the stability of Stomidazolone in the aqueous condition we used for our bioassays, we performed liquid chromatography-mass spectrometry (LC/MS) (Supplementary Fig. 4). Stomidazolone was incubated in the 1/2 MS liquid medium (pH 5.7) at room temperature for 48 hours. […] Additionally, we tested Stomidazolone’s stability in phosphate buffer (pH 7.0).
Stomidazolone in 1/2 MS liquid media (pH 5.7) or phosphate buffer (pH 7.0) was detected by LC (Agilent 1200, Agilent Technologies, Santa Clara, USA) coupled to a single quadrupole mass spectrometer (Agilent 6130) equipped with an APCI-ES source. For the stability assay of Stomidazolone, the analytical samples were prepared as follows: 100 μL 5 mM Stomidazolone in DMSO was diluted with 900 μL 1/2MS (pH5.7) or 50 mM Phosphate buffer (pH 7.0). The Stomidazolone solutions were incubated at room temperature with rotating. At 0 or 48 hr after incubation, the 10 μL of solution were collected, diluted with water: acetonitrile;= 50:50, and applied to LC/MS. […] The mobile phase consisted of 5 mM ammonium formate: acetonitrile = 80:20 at a flow rate of 0.6 mL/min. in isocratic mode, and detected by mass spectrometry (MS). […] The electrospray ionization mass spectra (ESI-MS) recorded in the mass-to-charge ratio range from m/z 80–1000 was collected. […]

For `O=C1C(c2ccccc2)=NC(NS(=O)(=O)c2ccccc2)(c2ccccc2)N1S(=O)(=O)c1ccccc1` (centres unmarked) [Stomidazolone], the a-galactosidase was 0.72 milliunits /(ml x cell) and 0.19 milliunits /(ml x cell) and 0.32 milliunits /(ml x cell) on DB+SCRM (control yeast) (10 µM); 0.16 milliunits /(ml x cell) and 0.47 milliunits /(ml x cell) and 0.51 milliunits /(ml x cell) at DB+SCRM (control yeast) (50 µM); 0.46 milliunits /(ml x cell) and 0.80 milliunits /(ml x cell) and 0.52 milliunits /(ml x cell) at DB+SCRM (control yeast) (100 µM). In addition, the “stability in 1/2 MS liquid medium (LC/MS)” value in data set [1] (pH 5.7, room temperature, 48 hours) is given as “no lzx103 peak (2.13 min) was detected”. Further, in data set [1] (pH 7.0, room temperature, 48 h), the “stability in phosphate buffer (LC/MS)” value was “did not detect the degradation”.
